According to the pKa sets of Baltruschat and Czodrowski (2020):

Settings: acidic group

| Structure (SMILES) | pKa |
| --- | --- |
| O=C(O)[C@@H]1O[C@H](Oc2cccc3ccc[nH+]c23)[C@@H](O)[C@H](O)[C@H]1O | 3.01 |
| Cc1ccc(Br)c(O)c(=O)c1 | 6.3 |
| c1ccc(CNc2ncnc3[nH]ncc23)cc1 | 10.9 |
| Cc1cccc(NS(=O)(=O)c2ccccc2)c1 | 8.48 |
| C=C(C)[C@@H]1C[NH2+][C@H](C(=O)[O-])[C@@H]1CC(=O)O | 4.58 |
| Nc1nc2nc[n-]c2c(N)[n+]1[O-] | 12 |
| Oc1ccc2c(c1)ncc1ccccc12 | 8.79 |
| O=C1C=C(S(=O)(=O)[O-])c2cn[nH]c2/C1=N\O | 5.85 |
| CCCCP(=O)(O)CCCC | 3.22 |
| COc1c(C(=O)O)oc2ccccc12 | 3.7 |
| Clc1ccc2[nH]nnc2c1 | 7.7 |
| Nc1c2[n-]cnc2nc[n+]1[O-] | 13 |
| [NH3+]C(CC(=O)[O-])C(=O)NC(CC(=O)O)C(=O)O (stereo not drawn) | 3.4 |
| O=C(Nc1nnc(-c2ccccc2)s1)c1ccccc1 | 6.8 |
| Cc1ccc(/C=C/C(=O)C(=O)O)cc1 | 1.96 |
| CCCC[C@H]([NH3+])C(=O)O | 2.39 |
| O=S(=O)(Nc1ccccc1)c1ccccc1 | 8.22 |
| O=[PH]([O-])C(NCc1ccncc1)c1ccccc1O (stereo not drawn) | 11.9 |
| CCOC(=O)C1CCCC1=O (stereo not drawn) | 10.7 |
| O=C1C[C@@H](C(=O)O)[C@@H](C(=O)O)O1 | 2.26 |
| CC(=O)C(C)C(C)(C)C(=O)O (stereo not drawn) | 5.79 |
| Cc1ccc(S(N)(=O)=O)cc1 | 9.89 |

| Structure (SMILES) | pKa |
| --- | --- |
| CC1(C)C(=O)CC(=O)CC1=O | 4.2 |
| CC1c2cc(O)ccc2CC1CC(=O)O (stereo not drawn) | 5.3 |
| CCOC(=O)Nc1ncnc2nc[nH]c12 | 9.63 |
| OC(O)c1ccncc1 | 12.2 |
| Cc1ccccc1-c1nnn[nH]1 | 4.09 |
| Cc1cc(C)c(C(=O)C(=O)O)c(C)c1 | 1.34 |
| COc1ccc2c(c1)[nH]c1c(C)nccc12 | 13.5 |
| CCC(=O)NBr | 8.2 |
| S=C(Nc1ccccc1)c1cccc(Br)c1 | 10.5 |
| Oc1c(I)cc(Cl)c2cccnc12 | 7.9 |
| CC1CCC(=O)C1=O (stereo not drawn) | 9.6 |
| O=[N+]([O-])CCc1ccccc1 | 8.55 |
| [NH3+]C(Cc1ccccc1)C(=O)O (stereo not drawn) | 2.3 |
| C[N+](C)(C)CCS | 7.98 |
| Cc1ccc(O)c(CO)c1 | 10.2 |
| CCCSC(C)C(=O)O (stereo not drawn) | 3.82 |
| C[NH2+]CCS | 8.02 |
| Cc1ccc(Cl)cc1C(=O)O | 3.63 |
| O=C(Oc1cccc(Cl)c1)C1c2ccccc2-c2ccccc21 | 10.2 |
| Cc1cc(C(=O)O)ccc1Br | 4.03 |
| CC#CCC(=O)O | 3.6 |
| CC[NH+]1CCC[C@@H]1CNC(=O)c1c(O)cccc1OC | 8.7 |

| Structure (SMILES) | pKa |
| --- | --- |
| NC(=O)C1CN2CCC1CC2 (stereo not drawn) | 9.74 |
| NC(=O)C(CC(=O)O)c1ccccc1 (stereo not drawn) | 4.23 |
| N#CC(=C(O)O)c1ccccc1 | 0.99 |
| C[N+](C)(C)CCCc1ccc(O)cc1 | 9.8 |
| COc1cccc(C(=O)O)c1C | 3.72 |
| COC(=S)C1c2ccccc2-c2ccccc21 | 7.4 |
| O=C1c2ccccc2C(=O)N1O | 6.13 |
| CC(=O)NO | 9.07 |
| CC(=N\O)/C(CO)=N/O | 10.1 |
| OCc1nc2ncncc2[nH]1 | 8.79 |
| CN1c2ccccc2Nc2c(O)cccc21 | 9.26 |
| Cc1cc(N)c(O)cc1C | 10.4 |
| CCCCCCCCCCCC(=O)O | 4.89 |
| OC(O)=C(O)c1ccccc1 | 6.39 |
| O=P([O-])([O-])C([NH2+]Cc1ccncc1)c1ccccc1O (stereo not drawn) | 10.2 |
| Cc1ccc(C(=O)O)o1 | 3.42 |
| O=C(O)CSc1ccc(S)cc1 | 3.77 |
| COc1cc(C)nc(-n2nc(C)cc2O)n1 | 6.9 |
| CCC1(C2=CCCCC2)C(=O)NC(=S)NC1=O | 7.12 |
| O=C1NS(=O)(=O)c2ccccc21 | 1.76 |
| CN(C)C(=O)c1ncnc2nc[nH]c12 | 7.9 |
| Cc1ccc(O)c([N+](=O)[O-])c1 | 7.4 |

| Structure (SMILES) | pKa |
| --- | --- |
| COc1ccccc(=O)c1O | 8 |
| CCC(=O)c1cc(C(=O)c2ccccc2)n[nH]1 | 9.14 |
| CO[n+]1ccccc1O | -1.3 |
| Nc1ncnc2nc[nH]c12 | 9.74 |
| Oc1ccc(-c2nnn[nH]2)cc1 | 4.28 |
| CCCO | 16 |
| CCCCS | 10.8 |
| O=C1COC(=O)C1 | 3.76 |
| COc1ccc2c(c1)CCC(=O)C2 | 13.3 |
| Cc1ccc(C(=O)O)c([N+](=O)[O-])c1 | 2.68 |
| CCC/C=C/C(=O)O | 4.71 |
| CCCCOC(=O)c1ccc[n+](O)c1 | 0.03 |
| [NH3+]CCCCCCCCCCC(=O)O | 4.62 |
| Cc1ccc2nc3ccc(O)cc3nc2c1 | 7.2 |
| O=C(O)C=C=Cc1ccccc1 | 3.7 |
| CNc1ccc(S(=O)(=O)Nc2nc(C)cs2)cc1 | 6.63 |
| S=C(Nc1ccc(Br)cc1)c1ccccc1 | 10.4 |
| COC(=O)Nc1ncnc2nc[nH]c12 | 9.68 |
| CC/C=C/C(=O)O | 4.69 |
| c1ccc(CSc2ncn[nH]2)cc1 | 9.5 |

Same assay, conditions: basic group

| Structure (SMILES) | pKa |
| --- | --- |
| COc1ccc2c(c1OC(C)=O)[C@]13CCN(C)[C@H](C2)[C@@H]1CC[C@H](OC)C3 | 9.31 |
| c1ccc(CNc2ncnc3[nH]ncc23)cc1 | 4.16 |
| O=Cc1ccc(-c2cnc(-c3ccccc3)o2)cc1 | 0.57 |
| CCCN(CCC)CCc1c[nH]c2ccccc12 | 8.6 |
| Oc1ccc2c(c1)ncc1ccccc12 | 4.82 |
| CC1=CCCCN1C | 11.4 |
| NC(=O)/C=C(\O)c1ccccn1 | 8.23 |
| C=CCN(C)CCOC(=O)C(=C)C | 7.39 |
| Cc1ccc2c(c1)CC(=O)CC2 | 12.9 |
| Cn1ccc(=N)c2ccccc21 | 12.4 |
| c1ccc(-c2ccco2)nc1 | 4.18 |
| CN1C[C@@H](C(=O)[O-])C=C2c3cccc4[nH]cc(c34)C[C@@H]21 | 7.85 |
| O=[PH]([O-])C(NCc1ccncc1)c1ccccc1O (stereo not drawn) | 8.05 |
| CCOC(=O)C(N)CC (stereo not drawn) | 7.71 |
| CCNc1nc(Cl)nc(NC(C)C)n1 | 1.61 |
| CN(C)CCCN(C)CCCN(C)C | 10 |
| Cc1ccc2nc3ccc(N)cc3nc2c1 | 4.8 |
| CN(C)CCC[NH+](C)C | 7.73 |
| CCCCCCN(CC(C)O)CC(O)CC (stereo not drawn) | 8.9 |
| CCOC(=O)Nc1ncnc2nc[nH]c12 | 2.4 |
| CO[C@H]1CC=C2CCN3CCC(CO)=C(CCO)[C@]23C1 | 8.69 |
| NCCc1ccccn1 | 9.51 |
| CCc1cc(Cl)c(OC)c(C(=O)NC[C@H]2CCCN2CC)c1[O-] | 9.77 |

| Structure (SMILES) | pKa |
| --- | --- |
| CC(=O)Nc1cccc2cc3ccccc3nc12 | 3 |
| Cc1cc([S-])[nH+]cn1 | 1.8 |
| COc1ccc2c(c1)[nH]c1c(C)nccc12 | 7.73 |
| OCc1ccccn1 | 4.66 |
| [O-]c1ccccc1C1=NCCN1 | 12.6 |
| Nc1ccc(-c2cnc(-c3ccc(Br)cc3)o2)cc1 | 3.51 |
| [NH3+]c1ccc(-c2ncc(-c3ccccc3)o2)cc1 | 0.06 |
| Oc1c(I)cc(Cl)c2cccnc12 | 2.61 |
| COC(=O)[C@H](Cc1c[nH]cn1)NC(C)=O | 6.3 |
| Oc1ccc(Cl)c2cccnc12 | 3.68 |
| CCCCCNCc1ccccc1O | 8.65 |
| CCC1CCCN1C (stereo not drawn) | 9.78 |
| Cc1ccc2nc3c(c(N4CCOCC4)c2c1)CCC3 | 7.18 |
| NCCCCCCO | 10.6 |
| COc1ccc(C(N)=O)cc1 | -1.6 |
| CCCCc1c(C)nc(NCC)nc1[O-] | 11 |
| CC(CCN(C)C)NN (stereo not drawn) | 9.23 |
| CC(CC(C#N)(c1ccccc1)c1ccccc1)N1CCCCC1 (stereo not drawn) | 7.73 |
| CN(C)CCCCCNC(=O)/C=N/[O-] | 10.3 |
| COCCNc1ccccc1 | 4.05 |
| Cc1cc(C(c2ccc(N)cc2)c2ccc(N)cc2)ccc1N | 4.9 |
| CCN(CC1CO1)CC1CO1 (stereo not drawn) | 6.91 |
| COc1ccc2c3c1O[C@H]1[C@@H](O)C=C[C@H]4[C@@H](C2)N(C)CC[C@@]341 | 8.05 |

| Structure (SMILES) | pKa |
| --- | --- |
| Cc1cccc(C)c1N(C)C | 5.85 |
| CN(CCO)CCO | 8.51 |
| Cc1cccc2[nH]cnc12 | 5.67 |
| CCCc1ccccc1N | 4.36 |
| C=C(C)C(=O)OCCNC | 8.96 |
| N[C@H]1CCC[C@H]1C(=O)Oc1ccc([N+](=O)[O-])cc1 | 8.36 |
| OCc1nc2ncncc2[nH]1 | 2.62 |
| CCCc1ccccn1 | 5.97 |
| COc1cc(OS(C)(=O)=O)ccc1-c1cn2cccnc2n1 | 3.95 |
| Cc1ccc(N)c(N)c1 | 5 |
| COc1c(CN)cc(C)cc1CN | 8.85 |
| Nc1ccc2[nH]c[nH+]c2c1 | 3.07 |
| Cc1cc(N)c(O)cc1C | 5.28 |
| Cc1cc(-c2ncc[nH]2)nn1C | 6.2 |
| CC(C)(N)C(N)=S | 7.61 |
| CCN(CC)CCCC(C)Nc1ccnc2ccc(OC)cc12 (stereo not drawn) | 10.2 |
| C[C@]1([NH3+])C[C@@H]1N | 5.83 |
| OC[C@H](O)[C@H](O)[C@@H](O)[C@H](O)c1nc2ccccc2[nH]1 | 5.28 |
| CCNCl | 0.93 |
| CNCC(O)CO (stereo not drawn) | 9.55 |
| N#CCCNN | 5.91 |
| Cc1cc(-c2ccccc2)nn(CCN2CCOCC2)c1=N | 9.7 |
| CC[C@]1(O)C[C@@H](C)N[C@@H]2CCCC[C@H]21 | 10.3 |

| Structure (SMILES) | pKa |
| --- | --- |
| C/C(N)=N/N(C)C | 10 |
| O=P([O-])([O-])c1cn2c(n1)[C@@H](O)[C@H](O)[C@@H](O)[C@@H]2CO | 7.69 |
| CN(C1=NCCCO1)c1ccccc1 | 10.7 |
| Nc1ncnc2nc[nH]c12 | 4.2 |
| COc1cccc2c1CN(C1CC3CCC(C1)N3Cc1ccccc1)C2=O (stereo not drawn) | 8.68 |
| CN(CC[NH+](C)C)c1ccnc2cccc([N+](=O)[O-])c12 | 4.86 |
| CC(=O)NC(Cc1c[nH]cn1)C(=O)[O-] (stereo not drawn) | 7.11 |
| C[C@@H]1N[C@H](CCCCCCCC(=O)[O-])CC[C@@H]1O | 10.4 |
| CCN(CC)CCNc1nc(C)nc(Nc2ccc(Cl)cc2)n1 | 9.3 |
| Nc1nc(N)c2ccccc2n1 | 8.12 |
| Cc1nc2cc(N)ccc2n1C | 7 |
| CCN(CC)CCSCC(C)C | 8.83 |
| Cn1ncc2ccccc21 | 0.51 |
| Cc1ccc(C)nn1 | 3.99 |
| O=[N+]([O-])c1ccc2[nH]c(-c3cccs3)nc2c1 | 2.36 |
| CN(C)CCC#N | 7.01 |
| COC(=O)c1ccccc1N(C)C | 5.55 |
| Cc1ccc(C2NCCS2)cc1 (stereo not drawn) | 5.35 |
| COC(=O)Nc1ncnc2nc[nH]c12 | 2.27 |
| COc1cc(S(C)=O)ccc1-c1cn2ccncc2n1 (stereo not drawn) | 2.88 |
| CCN(C)c1ccccc1 | 6.02 |
| OCCc1ccccn1 | 5.37 |
| c1ccc(C(CCN2CCCCC2)c2ccccc2)cc1 | 8.96 |
